Assay [1] has as its system HCV replicon (genotype 1b) in Huh7 hepatoma cell line ET. The assay is described as follows: microbe, parasite or virus in culture. Type of assay: cell-based. The note with it: Hepatitis C virus, Huh-7, 96 h, read-out: HCV-Replicon-1b- IC50. For orientation: A replicon is a self-replicating genome or part of one, used to study replication in cells.
Assay [2] concerns HCV sub-genomic replicon of genotype 1a in replicon cell line W11.8. The assay is described as follows: microbe, parasite or virus in culture. Type of assay: cell-based. The note with it: Hepatitis C virus, W11.8, 96 h, read-out: HCV-Replicon-ELISA-1a-IC50.

We go through three compounds from US20130183266A1, “COMPOUNDS AND METHODS FOR THE TREATMENT OR PREVENTION OF FLAVIVIRUS INFECTIONS” (Vertex Pharmaceuticals Incorporated, priority 2010, published 2013).

As a reminder, the IC50 is the concentration needed to halve the response being measured.

As to `[2H]c1c([2H])c([2H])c(-c2cc(N(C(=O)C3CCC(C)CC3)[C@H]3CC[C@H](O)CC3)c(C(=O)O)s2)c([2H])c1[2H]` (stereo partly drawn) [Compound 1, 3-[(trans-4-Hydroxy-cyclohexyl)-(trans-4-methylcyclohexanecarbonyl)-amino]-5-d5-phenyl-thiophene-2-carboxylic acid], the IC50 in assay [1] was in the range of 100 to 1000 nM.

`[2H][C@]1(O)CC[C@H](N(C(=O)C2CCC(C)CC2)c2cc(C#CC(C)(C)C)sc2C(=O)O)CC1` (stereo partly shown) [Compound 3]: the IC50 in assay [1] and in assay [2] was < 100 nM throughout. In the case of `[2H][C@]1(O)CC[C@H](N(C(=O)C2CCC(C)CC2)c2cc(-c3ccccc3)sc2C(=O)O)CC1` (stereo partly shown) [Compound 4], the IC50 in assay [1] was 100 to 1000 nM.
